Results on three compounds are retold here after the NIST ThermoML archive (doi:10.1016/j.jct.2010.11.005).

What is called vapor or sublimation pressure is the equilibrium pressure above the liquid or solid.

Data set [1] is described as follows: molar enthalpy of vaporization or sublimation. Particulars: 298.15 K; Crystal; Calvet microcalorimetry.
The conditions of data set [2]: Crystal, Calculated from knudsen effusion weight loss.

Where “and” joins values, the source holds several entries; their conditions need not be identical. Equal values may be shown once. ± gives the expanded uncertainty stated by the source.

Take `O=C(c1cccc([N+](=O)[O-])c1)c1cccc([N+](=O)[O-])c1` [3,3'-dinitrobenzophenone]: in data set [1], the molar enthalpy turned out to be 35.2 ± 1.86 kcal/mol.

On to `O=C(c1ccccc1)c1ccc([N+](=O)[O-])cc1` [4-nitrobenzophenone], for which the “vapor or sublimation pressure” value in data set [2] (359.27 K) was 0.00018 ± 9e-06 kPa and 0.000177 ± 9e-06 kPa and 0.000174 ± 9e-06 kPa; in data set [2] (361.19 K), 0.000215 ± 1.1e-05 kPa and 0.00021 ± 1.1e-05 kPa and 0.000214 ± 1.1e-05 kPa; in data set [2] (363.12 K), 0.000269 ± 1.3e-05 kPa and 0.000265 ± 1.3e-05 kPa and 0.000259 ± 1.3e-05 kPa; in data set [2] (365.29 K), 0.000344 ± 1.7e-05 kPa and 0.000342 ± 1.7e-05 kPa; in data set [2] (367.2 K) it was 0.000422 ± 2.1e-05 kPa and 0.00042 ± 2.1e-05 kPa and 0.000427 ± 2.1e-05 kPa; in data set [2] (369.12 K), 0.000512 ± 2.6e-05 kPa and 0.000509 ± 2.5e-05 kPa and 0.000523 ± 2.6e-05 kPa. Moreover, the “vapor or sublimation pressure” value was 0.000652 ± 3.3e-05 kPa and 0.000645 ± 3.2e-05 kPa and 0.000657 ± 3.3e-05 kPa in data set [2] (371.29 K); 0.000767 ± 3.8e-05 kPa and 0.000769 ± 3.8e-05 kPa and 0.000791 ± 4e-05 kPa in data set [2] (373.18 K); 0.000955 ± 4.8e-05 kPa and 0.000941 ± 4.7e-05 kPa and 0.00096 ± 4.8e-05 kPa in data set [2] (375.1 K). In data set [1], the molar enthalpy was 29.2 ± 1.29 kcal/mol.

For the compound `O=C(c1ccccc1)c1cccc([N+](=O)[O-])c1` [3-nitrobenzophenone], the “vapor or sublimation pressure” value in data set [2] (349.27 K) was 0.00016 ± 8e-06 kPa and 0.000161 ± 8e-06 kPa and 0.000162 ± 8e-06 kPa; in data set [2] (351.21 K), 0.000194 ± 1e-05 kPa and 0.000198 ± 1e-05 kPa; in data set [2] (353.12 K) it was 0.000248 ± 1.2e-05 kPa and 0.000245 ± 1.2e-05 kPa and 0.000244 ± 1.2e-05 kPa; in data set [2] (355.13 K), 0.000315 ± 1.6e-05 kPa and 0.000308 ± 1.5e-05 kPa; in data set [2] (357.21 K), 0.000399 ± 2e-05 kPa and 0.000396 ± 2e-05 kPa and 0.000395 ± 2e-05 kPa; in data set [2] (359.26 K) it was 0.000506 ± 2.5e-05 kPa and 0.000508 ± 2.5e-05 kPa. In addition, the “vapor or sublimation pressure” value is 0.000613 ± 3.1e-05 kPa and 0.00061 ± 3.1e-05 kPa and 0.000614 ± 3.1e-05 kPa in data set [2] (361.26 K); 0.000758 ± 3.8e-05 kPa and 0.000749 ± 3.8e-05 kPa and 0.000771 ± 3.9e-05 kPa in data set [2] (363.2 K); 0.000936 ± 4.7e-05 kPa and 0.000935 ± 4.7e-05 kPa and 0.000946 ± 4.7e-05 kPa in data set [2] (365.12 K). The molar enthalpy in data set [1] came to 29.5 ± 1.15 kcal/mol.
